# Test results from ChEMBL document CHEMBL4715760, “Balancing potency, metabolic stability and permeability in pyrrolopyrimidine-based EGFR inhibitors” (Eur J Med Chem, 2016).
# What was measured:
# [1] = target: Platelet-derived growth factor receptor alpha (Homo sapiens) (UniProt P16234); experiment: Inhibition of recombinant human GST-tagged PDGFRalpha (550 to 1089 residues) expressed in baculovirus expression system at 500 nM using Tyr 04 as substrate incubated for 1 hr in presence of ATP at its Km concentration by Z'-LYTE assay relative to control
# BXPC-3 = experiment: Antiproliferative activity against human BXPC-3 cells measured for 96 hrs by sytox green dye staining based proliferation assay; type: functional, cell-based; details: BXPC-3, 96 h
# C-33-A = experiment: Antiproliferative activity against human C-33A cells incubated for 72 hrs by ATPlite luminescence assay; type: functional, cell-based
# FaDu = experiment: Antiproliferative activity against human FaDU cells assessed as inhibition of cell growth incubated for 72 hrs by Cell Titer Glo luminescent cell viability assay; type: functional, cell-based
# PC-9 = experiment: Antiproliferative activity against human PC9 cells measured for 96 hrs by sytox green dye staining based proliferation assay; type: functional, cell-based; details: PC-9, 96 h
# K562 = experiment: Antiproliferative activity against human K562 cells assessed as inhibition of cell growth incubated for 72 hrs by Cell Titer Glo luminescent cell viability assay; type: functional, cell-based; details: K562, 72 h
# [2] = target: Epidermal growth factor receptor (Homo sapiens, UniProt P00533); experiment: Inhibition of EGFR (unknown origin) using Tyr 04 peptide as substrate incubated for 1 hr by Z'-LYTE assay
# [3] = target: Voltage-gated inwardly rectifying potassium channel KCNH2 (Homo sapiens, UniProt Q12809); experiment: Inhibition of human ERG expressed in CHO cells at -80 mV holding potential by IonWorks patch-clamp electrophysiology assay
# [4] = Apparent permeability from basolateral to apical side in human Caco2 cells at 10 uM measured for 120 mins by LC-MS/MS analysis; details: Caco-2
# [5] = target: Inhibitor of nuclear factor kappa-B kinase subunit beta (Homo sapiens) (UniProt O14920); experiment: Inhibition of recombinant human full-length GST-tagged IKBKB expressed in baculovirus expression system at 500 nM using Ser/Thr 05 as substrate incubated for 1 hr in presence of ATP at its Km concentration by Z'-LYTE assay relative to control
# [6] = target: MAP kinase-activated protein kinase 2 (Homo sapiens) (UniProt P49137); experiment: Inhibition of recombinant human His-tagged full length MAPKAPK2 expressed in Escherichia coli expression system at 500 nM using Ser/Thr 04 as substrate incubated for 1 hr in presence of ATP at its Km concentration by Z'-LYTE assay relative to control
# [7] = Metabolic stability in pooled human liver microsomes assessed as half life at 3 uM measured up to 45 mins in presence of NADPH by LC-MS/MS analysis; type: ADME, Microsome; details: pooled liver microsomes
# [8] = Apparent permeability from apical to basolateral side in human Caco2 cells at 10 uM measured for 120 mins by LC-MS/MS analysis; details: Caco-2
# [9] = Protein binding in plasma (unknown origin) assessed as unbound fraction at 5 uM by LC-MS/MS based equilibrium dialysis analysis
# [10] = Metabolic stability in pooled human liver microsomes assessed as Clearance at 3 uM measured up to 45 mins in presence of NADPH by LC-MS/MS analysis; type: ADME, Microsome; details: pooled liver microsomes, read-out: CLH
# A-431 = experiment: Antiproliferative activity against human A431 cells assessed as inhibition of cell growth incubated for 72 hrs by Cell Titer Glo luminescent cell viability assay; type: functional, cell-based; details: A-431, 72 h
# Platelet-derived growth factor receptor alpha (Homo sapiens), sequence (P16234 whole entry, the tested form may be a part): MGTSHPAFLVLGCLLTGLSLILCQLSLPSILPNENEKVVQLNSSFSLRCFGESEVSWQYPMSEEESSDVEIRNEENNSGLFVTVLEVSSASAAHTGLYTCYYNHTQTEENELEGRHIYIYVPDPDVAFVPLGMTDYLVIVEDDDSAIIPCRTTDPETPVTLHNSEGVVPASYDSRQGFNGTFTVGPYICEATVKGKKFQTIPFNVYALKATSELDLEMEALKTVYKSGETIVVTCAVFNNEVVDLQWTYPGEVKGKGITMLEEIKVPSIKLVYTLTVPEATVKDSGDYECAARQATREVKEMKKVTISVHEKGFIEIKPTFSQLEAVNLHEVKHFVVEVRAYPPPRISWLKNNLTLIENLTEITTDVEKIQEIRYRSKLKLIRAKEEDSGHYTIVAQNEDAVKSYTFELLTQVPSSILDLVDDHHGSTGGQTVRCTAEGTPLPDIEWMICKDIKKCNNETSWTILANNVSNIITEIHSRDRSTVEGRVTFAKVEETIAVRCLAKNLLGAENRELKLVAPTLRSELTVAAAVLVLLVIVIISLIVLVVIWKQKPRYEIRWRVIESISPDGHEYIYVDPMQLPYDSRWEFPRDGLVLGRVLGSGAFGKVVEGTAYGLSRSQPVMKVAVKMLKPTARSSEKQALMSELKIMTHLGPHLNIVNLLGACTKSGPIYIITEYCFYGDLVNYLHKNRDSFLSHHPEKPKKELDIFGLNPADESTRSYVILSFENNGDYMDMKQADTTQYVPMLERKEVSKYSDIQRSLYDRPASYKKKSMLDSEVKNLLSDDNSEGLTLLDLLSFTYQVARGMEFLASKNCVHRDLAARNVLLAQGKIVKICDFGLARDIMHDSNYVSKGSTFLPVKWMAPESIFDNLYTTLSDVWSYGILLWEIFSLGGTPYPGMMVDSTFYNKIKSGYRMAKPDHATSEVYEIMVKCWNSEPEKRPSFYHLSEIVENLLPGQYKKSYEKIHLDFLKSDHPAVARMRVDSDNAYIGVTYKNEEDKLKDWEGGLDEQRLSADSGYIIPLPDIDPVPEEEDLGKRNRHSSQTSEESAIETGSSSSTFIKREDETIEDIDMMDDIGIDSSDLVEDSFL
# Epidermal growth factor receptor, sequence (P00533 whole entry): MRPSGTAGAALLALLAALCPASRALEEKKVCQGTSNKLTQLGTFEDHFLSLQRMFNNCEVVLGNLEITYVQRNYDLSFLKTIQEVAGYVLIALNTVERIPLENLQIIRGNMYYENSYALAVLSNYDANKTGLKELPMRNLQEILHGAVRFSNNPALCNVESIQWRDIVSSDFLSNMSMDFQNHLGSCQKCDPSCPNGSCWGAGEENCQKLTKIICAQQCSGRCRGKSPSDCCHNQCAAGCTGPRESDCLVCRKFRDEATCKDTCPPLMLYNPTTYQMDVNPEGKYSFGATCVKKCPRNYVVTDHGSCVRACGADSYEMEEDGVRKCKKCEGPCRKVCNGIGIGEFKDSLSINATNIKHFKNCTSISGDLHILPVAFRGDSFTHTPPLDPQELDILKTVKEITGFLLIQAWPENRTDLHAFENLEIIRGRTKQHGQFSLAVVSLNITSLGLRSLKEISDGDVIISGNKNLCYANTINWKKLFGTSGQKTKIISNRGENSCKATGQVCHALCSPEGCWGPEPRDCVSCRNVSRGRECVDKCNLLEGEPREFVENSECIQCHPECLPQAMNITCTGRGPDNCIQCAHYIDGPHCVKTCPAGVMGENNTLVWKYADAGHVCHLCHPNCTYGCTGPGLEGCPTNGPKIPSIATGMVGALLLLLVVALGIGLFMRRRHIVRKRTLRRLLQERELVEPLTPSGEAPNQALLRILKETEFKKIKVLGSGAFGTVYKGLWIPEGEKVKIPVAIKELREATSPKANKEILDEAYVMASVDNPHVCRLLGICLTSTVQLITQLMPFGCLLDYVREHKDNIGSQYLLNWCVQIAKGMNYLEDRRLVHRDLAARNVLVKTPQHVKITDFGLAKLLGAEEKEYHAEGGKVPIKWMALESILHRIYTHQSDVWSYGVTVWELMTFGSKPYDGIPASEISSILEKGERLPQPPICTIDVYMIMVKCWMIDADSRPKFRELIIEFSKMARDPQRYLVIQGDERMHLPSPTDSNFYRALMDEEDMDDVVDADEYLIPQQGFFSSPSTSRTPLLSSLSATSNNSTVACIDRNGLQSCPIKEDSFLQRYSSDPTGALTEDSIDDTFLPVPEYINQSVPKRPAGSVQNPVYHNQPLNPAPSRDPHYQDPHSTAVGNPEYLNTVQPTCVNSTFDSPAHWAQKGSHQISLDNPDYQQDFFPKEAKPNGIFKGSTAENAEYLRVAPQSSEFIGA
# Inhibitor of nuclear factor kappa-B kinase subunit beta (Homo sapiens), sequence (O14920 whole entry): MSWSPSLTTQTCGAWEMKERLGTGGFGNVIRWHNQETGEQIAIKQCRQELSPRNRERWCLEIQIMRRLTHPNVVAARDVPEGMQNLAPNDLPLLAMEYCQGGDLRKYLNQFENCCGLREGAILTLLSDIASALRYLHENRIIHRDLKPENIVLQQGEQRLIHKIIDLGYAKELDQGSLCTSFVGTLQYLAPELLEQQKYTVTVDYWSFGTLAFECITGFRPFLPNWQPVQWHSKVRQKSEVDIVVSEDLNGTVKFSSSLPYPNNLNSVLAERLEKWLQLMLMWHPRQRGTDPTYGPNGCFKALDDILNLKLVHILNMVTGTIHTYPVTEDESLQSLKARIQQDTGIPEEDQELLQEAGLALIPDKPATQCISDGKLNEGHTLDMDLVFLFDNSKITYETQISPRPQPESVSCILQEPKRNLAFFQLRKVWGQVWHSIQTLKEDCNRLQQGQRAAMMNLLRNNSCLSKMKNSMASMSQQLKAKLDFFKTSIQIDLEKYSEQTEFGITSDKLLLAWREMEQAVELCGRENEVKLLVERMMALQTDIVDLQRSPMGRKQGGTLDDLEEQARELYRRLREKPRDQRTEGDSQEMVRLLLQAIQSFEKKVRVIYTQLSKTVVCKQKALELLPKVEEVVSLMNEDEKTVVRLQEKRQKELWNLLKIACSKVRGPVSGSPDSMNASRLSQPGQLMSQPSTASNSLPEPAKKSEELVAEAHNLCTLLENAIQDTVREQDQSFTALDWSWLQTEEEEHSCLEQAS
# Voltage-gated inwardly rectifying potassium channel KCNH2, sequence (Q12809 whole entry): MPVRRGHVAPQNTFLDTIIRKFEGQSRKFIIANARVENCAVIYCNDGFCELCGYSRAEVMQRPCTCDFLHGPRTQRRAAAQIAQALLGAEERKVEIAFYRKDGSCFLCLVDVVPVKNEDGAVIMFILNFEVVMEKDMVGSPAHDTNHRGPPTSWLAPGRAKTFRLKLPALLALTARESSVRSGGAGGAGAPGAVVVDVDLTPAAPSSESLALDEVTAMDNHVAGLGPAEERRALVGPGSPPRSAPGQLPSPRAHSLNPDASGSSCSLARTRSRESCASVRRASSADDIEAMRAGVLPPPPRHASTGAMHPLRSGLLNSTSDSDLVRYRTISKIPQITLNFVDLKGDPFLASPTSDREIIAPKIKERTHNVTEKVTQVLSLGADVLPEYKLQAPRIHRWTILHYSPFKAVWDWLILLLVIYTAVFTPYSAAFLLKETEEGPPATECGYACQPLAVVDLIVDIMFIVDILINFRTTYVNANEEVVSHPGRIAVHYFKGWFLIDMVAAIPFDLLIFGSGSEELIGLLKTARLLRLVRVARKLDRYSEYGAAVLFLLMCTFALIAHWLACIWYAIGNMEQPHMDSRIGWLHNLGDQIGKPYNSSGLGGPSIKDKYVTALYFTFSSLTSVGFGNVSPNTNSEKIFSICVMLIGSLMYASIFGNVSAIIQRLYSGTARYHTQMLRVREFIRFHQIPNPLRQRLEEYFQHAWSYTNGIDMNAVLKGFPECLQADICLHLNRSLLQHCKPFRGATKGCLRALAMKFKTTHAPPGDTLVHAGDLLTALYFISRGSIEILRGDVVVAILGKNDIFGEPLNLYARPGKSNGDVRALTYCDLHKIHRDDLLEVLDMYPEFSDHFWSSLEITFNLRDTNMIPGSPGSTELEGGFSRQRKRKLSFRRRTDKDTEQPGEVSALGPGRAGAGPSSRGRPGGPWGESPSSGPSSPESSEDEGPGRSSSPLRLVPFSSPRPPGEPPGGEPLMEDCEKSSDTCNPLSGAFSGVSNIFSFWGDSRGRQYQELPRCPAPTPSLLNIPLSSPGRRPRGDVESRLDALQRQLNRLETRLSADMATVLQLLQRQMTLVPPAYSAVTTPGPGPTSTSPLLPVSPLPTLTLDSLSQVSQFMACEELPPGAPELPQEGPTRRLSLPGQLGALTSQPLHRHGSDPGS
# MAP kinase-activated protein kinase 2 (Homo sapiens), sequence (P49137 whole entry, looked up): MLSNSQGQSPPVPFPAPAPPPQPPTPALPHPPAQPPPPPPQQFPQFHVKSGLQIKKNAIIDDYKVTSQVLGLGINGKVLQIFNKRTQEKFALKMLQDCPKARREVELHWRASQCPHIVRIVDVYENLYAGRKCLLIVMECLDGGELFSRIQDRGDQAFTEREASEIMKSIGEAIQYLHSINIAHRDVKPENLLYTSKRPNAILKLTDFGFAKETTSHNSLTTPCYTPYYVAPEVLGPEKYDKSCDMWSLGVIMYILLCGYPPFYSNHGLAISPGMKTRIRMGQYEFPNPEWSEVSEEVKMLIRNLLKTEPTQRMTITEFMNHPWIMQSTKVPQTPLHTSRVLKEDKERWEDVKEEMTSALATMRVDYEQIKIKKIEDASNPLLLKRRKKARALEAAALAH
SMILES,inhibition [1] [%],IC50 (BXPC-3) [nM],IC50 (C-33-A) [nM],IC50 (FaDu) [nM],IC50 (PC-9) [nM],IC50 (K562) [nM],IC50 [2] [nM],IC50 [3] [nM],"Papp B→A at 2 h, 10 µM [4] [×10⁻⁶ cm/s]",inhibition [5] [%],inhibition [6] [%],half-life at 3 µM [7] [min],"Papp A→B at 2 h, 10 µM [8] [×10⁻⁶ cm/s]",fraction unbound at 5 µM [9],microsomal CLint at 3 µM [10] [µL/min/mg],IC50 (A-431) [nM]
CCOc1ccccc1-c1cc2c(N[C@H](CO)c3ccccc3)ncnc2[nH]1,-8,–,–,–,–,–,–,–,–,–,–,–,–,–,–,–
OC[C@@H](Nc1ncnc2[nH]c(-c3ccccc3)cc12)c1ccccc1,–,15000,700,> 33000,< 100,15000,0.4,–,–,–,–,–,–,–,–,–
C#Cc1cccc(Nc2ncnc3cc(OCCOC)c(OCCOC)cc23)c1 [ERLOTINIB],–,1900,900,> 11000,< 100,55000,–,> 25000,31,-5,-1,31.7,38.8,0.117,43.8,–
COc1ccccc1-c1cc2c(N[C@H](CO)c3ccccc3)ncnc2[nH]1,6,–,–,–,–,–,0.8,–,–,–,–,–,–,–,–,400
